This note sets out measurements from US20250382344A1, “Soluble GLP1/GIP/NPY2 Receptor Triple Agonists” (Boehringer Ingelheim International GmH, priority 2024, published 2025).

Usually solubility stands for the dissolved amount per volume that the medium holds.

SMILES strings stand for the structures. pEC50: −log10 of the molar value. Where two headings read alike, the source gives them in different places.

Series [1] can be described thus: Solubility in 0.1 M phosphate buffer at pH 7. In kind it is physicochemical. The settings on record: 0.1 M phosphate buffer at pH 7, 10 mg/mL final peptide concentration, shaking 2 hours at room temperature, peptides as TFA-salts; measured sample pH 6.5-7.0.
The target in a further series is T1, hGIPR (Homo sapiens, UniProt P48546).
T1 construct: expressed in transfected cells; host or cells: CHO CRE-luciferase reporter cells
T1 sequence (P48546 22-466): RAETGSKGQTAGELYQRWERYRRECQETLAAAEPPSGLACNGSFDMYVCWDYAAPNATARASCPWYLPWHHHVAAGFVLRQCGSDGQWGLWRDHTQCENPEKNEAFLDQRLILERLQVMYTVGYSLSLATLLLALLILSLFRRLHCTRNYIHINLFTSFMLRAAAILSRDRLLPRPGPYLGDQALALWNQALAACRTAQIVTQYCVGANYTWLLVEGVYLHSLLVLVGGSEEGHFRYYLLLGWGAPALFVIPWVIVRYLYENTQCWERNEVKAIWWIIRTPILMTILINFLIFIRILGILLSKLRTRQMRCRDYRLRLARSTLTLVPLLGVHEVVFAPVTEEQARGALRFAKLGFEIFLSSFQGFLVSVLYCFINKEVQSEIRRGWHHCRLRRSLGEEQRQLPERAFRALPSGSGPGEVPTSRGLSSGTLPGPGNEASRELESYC
The series is described as follows: hGIPR CreLuc assay in 0.5% and 100% plasma (CHO CRE-luciferase reporter cells). In kind it is cell-based.

The next series has as its target T2, hNPY2R (Homo sapiens, UniProt P49146).
T2 construct: expressed in transfected cells; host or cells: HEK-293 CRE-luciferase reporter cells
T2 sequence (P49146 1-381): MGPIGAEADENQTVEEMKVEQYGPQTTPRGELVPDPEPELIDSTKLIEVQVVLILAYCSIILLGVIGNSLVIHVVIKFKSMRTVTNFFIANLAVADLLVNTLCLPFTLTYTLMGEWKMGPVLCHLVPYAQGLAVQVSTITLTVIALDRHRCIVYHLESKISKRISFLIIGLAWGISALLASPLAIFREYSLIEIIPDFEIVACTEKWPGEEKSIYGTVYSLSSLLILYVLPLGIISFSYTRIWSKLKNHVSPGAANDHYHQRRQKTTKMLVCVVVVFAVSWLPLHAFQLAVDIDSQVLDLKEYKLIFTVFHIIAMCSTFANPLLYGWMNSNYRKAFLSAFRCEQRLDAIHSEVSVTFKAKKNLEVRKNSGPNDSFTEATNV
The series is described as follows: hNPY2R CreLuc assay in 0.5% and 100% plasma (HEK-293 CRE-luciferase reporter cells). In kind it is cell-based. To be noted: HEK-293 reporter cells. The source says: CHO and HEK-293 recombinant cell lines express a luciferase reporter gene under control of the CAMP responsive element (CRE). As a second recombinant protein the GLP-1 and NPY2 receptors were expressed in the reporter gene HEK cells, and the GIP receptor was expressed in the reporter gene CHO cells, respectively. Stimulation of these recombinant cells with an agonist leads to an increase of intracellular CAMP levels. In the presence of CAMP, the transcription factor CRE binding protein (CREB) binds to the CRE and to the CREB binding protein (CBP), which leads to transcription of the luciferase reporter gene. Peptides upon serial-dilution in 100% DMSO were transferred into 384-well assay plates with 5 μl pre-dispensed assay buffer (1×HBSS, 20 mM HEPES, pH7.4 supplemented with 0.5% human plasma) using acoustic dispensing on a Labcyte ECHO. Cryo-preserved transgenic reporter gene cells were thawed in assay buffer. 20 μl (10.000 cells/well) were added to the plate with the peptides and incubated for 4 hours at 37° C. in a humidified incubator. Following incubation, assay plates are equilibrated to room temperature, followed by addition of 25 μl of Bright-Glo™ Luciferase reagent, incubation at room temperature for 10 minutes and analysis of luminescence (Envision Reader). […] EC50 values were calculated by non-linear regression using sigmoid concentration-response with variable slope.
The same assays were run in the presence of 100% plasma with no additional buffer constituents.
A general note: A reporter such as luciferase makes a cellular process visible.

The mark [2] stands for this setting: 0.5% human plasma, read-out: hGIPR 0.5% hP.
Setting [3] is: 100% human plasma, read-out: hNPY2R 100% hP.

In the case of `CC[C@H](C)[C@H](NC(=O)[C@H](CC(C)C)NC(=O)[C@H](Cc1c[nH]cn1)NC(=O)[C@H](CCCNC(=N)N)NC(=O)[C@@H](NC(=O)[C@H](Cc1ccccc1)NC(=O)[C@H](C)NC(=O)C(C)(C)NC(=O)[C@H](CCC(N)=O)NC(=O)[C@H](C)NC(=O)[C@H](CCC(N)=O)NC(=O)[C@H](CCCCN)NC(=O)[C@H](CCC(=O)O)NC(=O)[C@H](CC(C)C)NC(=O)C(C)(C)NC(=O)[C@@H](NC(=O)[C@H](CO)NC(=O)[C@H](Cc1ccc(O)cc1)NC(=O)[C@H](CC(=O)O)NC(=O)[C@H](CO)NC(=O)[C@@H](NC(=O)[C@H](Cc1ccccc1)NC(=O)[C@@H](NC(=O)CNC(=O)[C@H](CCC(=O)O)NC(=O)C(C)(C)NC(=O)[C@@H](N)Cc1ccc(O)cc1)[C@@H](C)O)[C@@H](C)O)[C@@H](C)CC)C(C)C)C(=O)N[C@@H](CC(N)=O)C(=O)N[C@@H](CCCCNC(=O)COCCOCCNC(=O)CC[C@H](NC(=O)CC[C@H](NC(=O)CC[C@H](NC(=O)CC[C@H](NC(=O)CC[C@H](NC(=O)CC[C@H](NC(=O)CCCCCCCCCCCCCCCCCCC(=O)O)C(=O)O)C(=O)O)C(=O)O)C(=O)O)C(=O)O)C(=O)O)C(=O)NC(C)(C)C(=O)N[C@H](C(=O)N[C@@H](CCCNC(=N)N)C(=O)N[C@@H](CCC(N)=O)C(=O)N[C@@H](CCCNC(=N)N)C(=O)N[C@@H](Cc1ccc(O)cc1)C(N)=O)[C@@H](C)O` [Compound 99, Y-Aib-E-G-T-F-T-S-D-Y-S-I-Aib-L-E-K-Q-A-Q-Aib-A-F-V-R-H-L-I-N-K(1,3)-Aib-T-R-Q-R-Y-NH2.C20DA-gGlu-gGlu-gGlu-gGlu-gGlu-gGlu-OEG(1,2)], the solubility at 2 h in series [1] was 10000 µg/mL. Besides, the pEC50 on hGIPR (setting [2]) is 9.30; on hNPY2R (setting [3]) it was 6.90.

For `CC[C@H](C)[C@H](NC(=O)[C@H](CO)NC(=O)[C@H](Cc1ccc(O)cc1)NC(=O)[C@H](CC(=O)O)NC(=O)[C@H](CO)NC(=O)[C@@H](NC(=O)[C@H](Cc1ccccc1)NC(=O)[C@@H](NC(=O)CNC(=O)[C@H](CCC(=O)O)NC(=O)C(C)(C)NC(=O)[C@@H](N)Cc1ccc(O)cc1)[C@@H](C)O)[C@@H](C)O)C(=O)NC(C)(C)C(=O)N[C@@H](CC(C)C)C(=O)N[C@@H](CCC(=O)O)C(=O)N[C@@H](CCCCN)C(=O)N[C@@H](CCC(N)=O)C(=O)N[C@@H](C)C(=O)N[C@@H](CCC(N)=O)C(=O)NC(C)(C)C(=O)N[C@@H](C)C(=O)N[C@@H](Cc1ccccc1)C(=O)N[C@H](C(=O)N[C@@H](CCCNC(=N)N)C(=O)N[C@@H](Cc1c[nH]cn1)C(=O)N[C@@H](CC(C)C)C(=O)N[C@@H](CC(C)C)C(=O)N[C@@H](CC(N)=O)C(=O)N[C@@H](CCCCNC(=O)[C@@H](N)CCCCNC(=O)CC[C@H](NC(=O)CC[C@H](NC(=O)CC[C@H](NC(=O)CC[C@H](NC(=O)CC[C@H](NC(=O)CC[C@H](NC(=O)CCCCCCCCCCCCCCCCC(=O)O)C(=O)O)C(=O)O)C(=O)O)C(=O)O)C(=O)O)C(=O)O)C(=O)NC(C)(C)C(=O)N[C@H](C(=O)N[C@@H](CCCNC(=N)N)C(=O)N[C@@H](CCC(N)=O)C(=O)N[C@@H](CCCNC(=N)N)C(=O)N[C@@H](Cc1ccc(O)cc1)C(N)=O)[C@@H](C)O)C(C)C` [Compound 107, Y-Aib-E-G-T-F-T-S-D-Y-S-I-Aib-L-E-K-Q-A-Q-Aib-A-F-V-R-H-L-L-N-K(1,3)-Aib-T-R-Q-R-Y-NH2.C18DA-gGlu-gGlu-gGlu-gGlu-gGlu-gGlu-eLys(1,2)], in series [1], the solubility at 2 h is 3900 µg/mL. In addition, the pEC50 was 9.15 on hGIPR (setting [2]); 7.88 at hNPY2R (0.5% human plasma, read-out: hNPY2R 0.5% hP); 7.69 on hNPY2R (setting [3]).

Turning to `CC[C@H](C)[C@H](NC(=O)[C@H](CC(C)C)NC(=O)[C@H](Cc1c[nH]cn1)NC(=O)[C@H](CCCNC(=N)N)NC(=O)[C@@H](NC(=O)[C@H](Cc1ccccc1)NC(=O)[C@H](C)NC(=O)C(C)(C)NC(=O)[C@H](CCC(N)=O)NC(=O)[C@H](C)NC(=O)[C@H](CCC(N)=O)NC(=O)[C@H](CCCCN)NC(=O)[C@H](CCC(=O)O)NC(=O)[C@H](CC(C)C)NC(=O)C(C)(C)NC(=O)[C@@H](NC(=O)[C@H](CO)NC(=O)[C@H](Cc1ccc(O)cc1)NC(=O)[C@H](CC(=O)O)NC(=O)[C@H](CO)NC(=O)[C@@H](NC(=O)[C@H](Cc1ccccc1)NC(=O)[C@@H](NC(=O)CNC(=O)[C@H](CCC(=O)O)NC(=O)C(C)(C)NC(=O)[C@@H](N)Cc1ccc(O)cc1)[C@@H](C)O)[C@@H](C)O)[C@@H](C)CC)C(C)C)C(=O)N[C@@H](CC(N)=O)C(=O)N[C@@H](CCCCNC(=O)COCCOCCNC(=O)CC[C@H](NC(=O)CC[C@H](NC(=O)CC[C@H](NC(=O)CC[C@H](NC(=O)CC[C@H](NC(=O)CCCCCCCCCCCCCCCCC(=O)O)C(=O)O)C(=O)O)C(=O)O)C(=O)O)C(=O)O)C(=O)NC(C)(C)C(=O)N[C@H](C(=O)N[C@@H](CCCNC(=N)N)C(=O)N[C@@H](CCC(N)=O)C(=O)N[C@@H](CCCNC(=N)N)C(=O)N[C@@H](Cc1ccc(O)cc1)C(N)=O)[C@@H](C)O` [Compound 140, Y-Aib-E-G-T-F-T-S-D-Y-S-I-Aib-L-E-K-Q-A-Q-Aib-A-F-V-R-H-L-I-N-K(1,3)-Aib-T-R-Q-R-Y-NH2.C18DA-gGlu-gGlu-gGlu-gGlu-gGlu-OEG(1,2)], the solubility at 2 h in series [1] worked out at 4900 µg/mL. For the same compound, the pEC50 on hGIPR (setting [2]) is 9.70; on hGIPR (100% human plasma, read-out: hGIPR 100% hP), 8.10; at hNPY2R (setting [3]) it was 6.85.

`CC[C@H](C)[C@H](NC(=O)[C@H](CC(C)C)NC(=O)[C@H](Cc1c[nH]cn1)NC(=O)[C@H](CCCNC(=N)N)NC(=O)[C@@H](NC(=O)[C@H](Cc1ccccc1)NC(=O)[C@H](C)NC(=O)C(C)(C)NC(=O)[C@H](CCC(N)=O)NC(=O)[C@H](C)NC(=O)[C@H](CCC(N)=O)NC(=O)[C@H](CCCCN)NC(=O)[C@H](CCC(=O)O)NC(=O)[C@H](CC(C)C)NC(=O)C(C)(C)NC(=O)[C@@H](NC(=O)[C@H](CO)NC(=O)[C@H](Cc1ccc(O)cc1)NC(=O)[C@H](CC(=O)O)NC(=O)[C@H](CO)NC(=O)[C@@H](NC(=O)[C@H](Cc1ccccc1)NC(=O)[C@@H](NC(=O)CNC(=O)[C@H](CCC(=O)O)NC(=O)C(C)(C)NC(=O)[C@@H](N)Cc1ccc(O)cc1)[C@@H](C)O)[C@@H](C)O)[C@@H](C)CC)C(C)C)C(=O)N[C@@H](CC(N)=O)C(=O)N[C@@H](CCCCNC(=O)CCCCCNC(=O)CC[C@H](NC(=O)CC[C@H](NC(=O)CC[C@H](NC(=O)CC[C@H](NC(=O)CC[C@H](NC(=O)CC[C@H](NC(=O)CCCCCCCCCCCCCCCCCCC(=O)O)C(=O)O)C(=O)O)C(=O)O)C(=O)O)C(=O)O)C(=O)O)C(=O)NC(C)(C)C(=O)N[C@H](C(=O)N[C@@H](CCCNC(=N)N)C(=O)N[C@@H](CCC(N)=O)C(=O)N[C@@H](CCCNC(=N)N)C(=O)N[C@@H](Cc1ccc(O)cc1)C(N)=O)[C@@H](C)O` [Compound 157, Y-Aib-E-G-T-F-T-S-D-Y-S-I-Aib-L-E-K-Q-A-Q-Aib-A-F-V-R-H-L-I-N-K(1,3)-Aib-T-R-Q-R-Y-NH2.C20DA-gGlu-gGlu-gGlu-gGlu-gGlu-gGlu-AHX(1,2)]: in series [1], the solubility at 2 h worked out at 5200 µg/mL. For the same compound, the pEC50 is 9.70 on hGIPR (setting [2]) and 6.87 at hNPY2R (setting [3]).
